Test results from patent US4810648A, “Haloarylnitrile degrading gene, its use, and cells containing the gene” (Rhone Poulenc Agrochimie, priority 1987, dated 1989).

Legend:
tomato leaf sections = assay: Tomato leaf sections in bromoxynil-containing medium under photoautotrophic conditions; type: cell-based, Lycopersicon esculentum cv. UC828
Method: Co-cultivation of tomato (Lycopersicon esculentum cv. UC828) cotyledonary explants was carried out as described previously with tobacco and kanamycin shoots regenerated. […] Approximately 5 mm leaf sections from surface-sterilized(10% hypochlorite; water washed) leaves were suspended in bromoxynil-containing medium at varying concentrations under photoautotrophic conditions. The media was MS salts containing 2 mg/l […], 1 mg/l isopentyladenine and 100 mg/l myoinositol and bromoxynil at 10^-5 or 10^-6 M. The same photoautotrophic conditions were employed as described for tobacco. […] Transgenic tomato plants (10-20 leaf stage) were sprayed with a commercial formulation of bromoxynil (BUCTRIL) and found to be resistant at 0.5 lbs/acre.

[1] = target: T1, Klebsiella ozaenae bromoxynil-specific nitrilase, N-terminal modified variant nit-23 (pBrx23) (Klebsiella pneumoniae, UniProt P10045); assay: Kinetics of purified N-terminal modified nitrilase; type: biochemical, Klebsiella pneumoniae sub-species ozaenae; conditions: purified nit-23
T1 construct: natural N-terminus truncated (Bal31, about 51 nt removed) and replaced by 17 pUC19-encoded residues; purified enzyme
Method: Plasmid pBrx9 was digested with BamH1, followed by resection with Bal31 for about 5 min to remove about 51 nt. The enzyme was inactivated, the resected linear DNA sequence ligated with BamH1 linkers, digested with BamH1 and recircularized under ligating conditions. […] This fragment was inserted into pCGN 566 which had been completely digested with BamH1 and SmaI to produce plasmid pBrx23, of 3.7Kb. Plasmid pCGN 566 is a derivative of pUC13 with polylinkers from pUC18 and pUC19 and the chloramphenicol resistance gene. The fragment from pBrx15 is inserted to be in reading frame with an upstream initiation codon and where 17 amino acids encoded by the pUC19 sequence replace amino acids of the naturally occurring nitrilase.
The following provides the sequence of the N-terminal modified nitrilase (nit-23). [drawing 3] Purification of the Wild-Type and Altered Nitrilase
Nitrilase was prepared from stationary phase MM 294 E. coli cells containing the pBrx9, pBrx11 or pBrx28 plasmids. Cultures were grown under ampicillin selection until the whole cell nitrilase assay yielded an OD640 of approximately 2.0. Cultures were centrifuged at 8,000 xg for 15 min at 4° C. The cells were washed in 0.1M potassium phosphate buffer pH 7.4, repelleted, dried, and frozen at -20° C. The pellet was thawed at 4° C. and resuspended in 40 ml 50 mM potassium phosphate buffer with 1 mM dithiothreitol, 0.1 mM EDTA (KDE). […]

tobacco leaf sections = assay: Tobacco leaf sections in bromoxynil containing media under photoautotrophic conditions; type: cell-based, Nicotiana tabacum cv. "Xanthi"
Method: The plasmids were transformed into A, tumefaciens strain LBA4404, followed by co-cultivation with tobacco (Nicotiana tabacum cv. "Xanthi") cotyledonary explants. Kanamycin-resistant shoots were regenerated into tobacoo plants in accordance with conventional techniques.
Approximately 5 mm leaf section from surface-sterilized (10% hypochloriate; water-washed) leaves were suspended in bromoxynil containing media under photoautotrophic conditions. The media employed was MS salts containing 0.93 mg/l naphthylacetic acid and 0.11 mg/l benzylaminopurine, with varying amounts of bromoxynil. The concentration of bromoxynil varied from 10^-3 to 10^-6 M at 0.1 dilutions. The photoautotrophic conditions were 5% CO2, 10% O2, 85% N2. Control tobacco leaf sections which had not been transformed were bleached (inhibited) at 10^-6 M bromoxynil. By contrast, transformed leaf sections expressing the bromoxynil-specific nitrilase from plasmids pBrx39 and pBrx40 were resistant to 10^-5 M and 10^-4 M bromoxynil, respectively.

N#Cc1cc(Br)c(O)c(Br)c1 = assay: Kinetics of purified wild-type bromoxynil-specific nitrilase; type: biochemical, Klebsiella pneumoniae sub-species ozaenae; conditions: other: purified nit-wt, substrate not given, 30.0 °C
Method: All four colonies were grown in 200 mls L-broth containing 0.05% bromoxynil. Cells were disrupted with a French press, the high speed supernatants dialyzed against buffer containing 0.05M KPO, pH7.5; 2.5 mM dithiothreitol (DTT) and the individual crude extracts assayed for bromoxynil specific nitrilase activity. […] Cells (200 ml) were grown at 30° C. to mid log phase in M9 medium (Miller (1972) Experiments in Molecular Genetics, Cold Spring Harbor Laboratory) containing 0.1% glucose and 0.04% bromoxynil. Crude extracts were prepared by cell disruption, ultracentrifugation and dialysis of the supernatant in buffer containing 0.05M KPO4 pH 7.5 and 2.5 mM DTT. Substrate concentarion was 3 mM bromoxynil in all assays. Release of NH3 was monitored according to Harper Biochem. J. (1977) 167:685-692. The ability of K. ozaenae variant to grow in L-broth containing bromoxynil may result in acquired impermeability of the organism to the compound. However, the organism cannot grow in defined media utilizing bromoxynil as sole nitrogen source.
Nitrilase was prepared from stationary phase MM 294 E. coli cells containing the pBrx9, pBrx11 or pBrx28 plasmids. Cultures were grown under ampicillin selection until the whole cell nitrilase assay yielded an OD640 of approximately 2.0. Cultures were centrifuged at 8,000 xg for 15 min at 4° C. […]

## N#Cc1cc(Br)c(O)c(Br)c1 [bromoxynil, 3,5-dibromo-4-hydroxybenzonitrile]
Tomato leaf sections; Solanum lycopersicum, control tomato leaf sections, not transformed, read-out: concentration at which leaf sections were bleached
  minimal effective concentration: 1 µM
Tomato leaf sections; transformed tomato expressing nitrilase gene from pBrx29
  concentration to which leaf sections were resistant: 10^-5 M
[1]
  Km: 110 µM
  Vmax: 9 µmol/min/mg
Tobacco leaf sections; Nicotiana tabacum, control tobacco leaf sections, not transformed, read-out: concentration at which leaf sections were bleached (inhibited)
  minimal effective concentration: 1 µM
Tobacco leaf sections; transformed tobacco leaf sections expressing nitrilase from pBrx39
  concentration to which leaf sections were resistant: 10^-5 M
Tobacco leaf sections; transformed tobacco leaf sections expressing nitrilase from pBrx40
  concentration to which leaf sections were resistant: 10^-4 M

## Klebsiella ozaenae bromoxynil-specific nitrilase, wild type (nit-wt, from pBrx9) (Klebsiella pneumoniae subsp. ozaenae)
N#Cc1cc(Br)c(O)c(Br)c1
  Km: 310 µM
